This is an account of results in paper PMC12392035, “Development of Carborane-Based Benzothiazole Analogues as Cannabinoid Receptor Type 2 (CB2R) Ligands” (ACS Omega, 2025).

Test [1] deals with T1, human CB1R (cannabinoid receptor type 1) (Homo sapiens, UniProt P21554).
T1 construct: gene CNR1; stably transfected in CHO cells; crude membrane homogenates
As to the kind of experiment: competitive radioligand binding, CHO membranes. As to conditions: [3H]SR141716A displacement; mean of two values; read-out: KiCB1R (nM) mean ^a. The source says: competitive radioligand binding, CHO membranes on human CB1R (cannabinoid receptor type 1)

For test [2], the target named is T2, human CB2R (cannabinoid receptor type 2) (Homo sapiens, UniProt P34972).
T2 construct: gene CNR2; stably transfected in CHO cells; crude membrane homogenates
The experiment in a line: competitive radioligand binding, CHO membranes. As to conditions: [3H]WIN55212-2 displacement; mean of two values; read-out: KiCB2R (nM) mean ^a. The text has this: competitive radioligand binding, CHO membranes on human CB2R (cannabinoid receptor type 2)

T2 sequence (P34972 whole entry): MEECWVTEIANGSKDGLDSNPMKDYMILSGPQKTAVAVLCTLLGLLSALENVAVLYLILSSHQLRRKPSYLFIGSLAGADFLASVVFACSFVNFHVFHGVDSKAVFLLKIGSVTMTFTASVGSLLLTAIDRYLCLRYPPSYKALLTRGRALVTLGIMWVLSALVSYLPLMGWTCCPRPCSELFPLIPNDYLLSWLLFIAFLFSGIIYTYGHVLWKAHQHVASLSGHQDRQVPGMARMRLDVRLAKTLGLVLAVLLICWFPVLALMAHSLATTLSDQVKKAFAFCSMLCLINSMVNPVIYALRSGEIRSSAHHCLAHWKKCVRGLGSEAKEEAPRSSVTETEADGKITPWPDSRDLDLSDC
T1 sequence (P21554 whole entry): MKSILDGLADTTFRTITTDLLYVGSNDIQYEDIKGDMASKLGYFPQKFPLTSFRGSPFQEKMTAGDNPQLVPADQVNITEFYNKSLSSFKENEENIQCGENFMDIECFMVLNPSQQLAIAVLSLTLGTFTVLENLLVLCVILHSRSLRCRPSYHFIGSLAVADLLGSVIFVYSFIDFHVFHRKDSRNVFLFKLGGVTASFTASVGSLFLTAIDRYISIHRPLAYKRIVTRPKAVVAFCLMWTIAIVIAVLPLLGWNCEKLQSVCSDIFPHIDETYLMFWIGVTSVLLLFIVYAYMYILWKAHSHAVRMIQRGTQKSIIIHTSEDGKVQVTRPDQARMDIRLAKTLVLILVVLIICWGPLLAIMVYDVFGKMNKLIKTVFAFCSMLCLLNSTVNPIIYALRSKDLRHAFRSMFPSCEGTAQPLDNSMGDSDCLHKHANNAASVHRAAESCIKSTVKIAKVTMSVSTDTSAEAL

As to “(Z)-N-(6-Methoxy-3-(2-methoxyethyl)-benzo[d]-thiazol-2(3H)-ylidene)(1,2-closo-dicarba-dodecaborane)-carboxamide [2o]”, the Ki in test [1] came to 76800 nM; in test [2], 7.37 nM.

As for “(Z)-N-(6-Methoxy-3-(2-methoxyethyl)-benzo[d]-thiazol-2(3H)-ylidene)(1,7-closo-dicarba-dodecaborane)-carboxamide [2m]”, the figures for the Ki in test [1] and in test [2] were 42300 nM and 2.47 nM, respectively.

With “(Z)-N-(6-Methoxy-3-(2-methoxyethyl)-benzo[d]-thiazol-2(3H)-ylidene)(1,12-closo-dicarba-dodecaborane)-carboxamide [2p]”, the results for the Ki in test [1] and in test [2] were 8670 nM and 3.17 nM, respectively.
